In a melting point compilation (Tetko et al.):

Compound	melting point [°C]
Cc1cc(=O)oc(C)c1C(=O)O	154 to 156
NC(=O)c1ccc(Cl)nc1	215
CN(C)C1C(=O)C(=C(N)O)C(=O)C2(O)C(=O)C3=C(O)c4c(O)cccc4C(C)(O)C3C(O)C12 (configuration not stated)	121
O=C(Oc1c(F)c(F)c(F)c(F)c1F)C1CCN(c2ncnc3ccsc23)CC1	99 to 104
CC(=O)OCC(=O)C1(OC(C)=O)CCC2(C)C(CCC3C4CCC(=O)C4(C)CCC32)C1 (configuration not stated)	141
CCOC(=O)C(Br)C(C)Br (configuration not stated)	58.5
Cc1cc(C)nc(Nc2ccccc2)n1	96.3
C=CC1CNC(=S)O1 (configuration not stated)	50
COc1ccc(C(=CC(=O)N2CCOCC2)c2ccc(F)cc2)cc1OC	108
CCC1(c2ccccc2)C(=O)N(COC)C(=O)N(COC)C1=O	117
CCOP(=S)(OCC)SCSP(=S)(OCC)OCC	-12
Fc1ccc2[nH]ccc2c1	45
C1CCCCNCCC1	-19
Cc1nc2ccccc2c(=O)n1-c1ccccc1Cl	126
CCCCCCCCCCCCCCCCCC(=O)Cl	23
CCOC(=O)c1c(C)n[nH]c1N	108
c1ccc(Cn2cncn2)cc1	49
c1ccc2sc(SN(C3CCCCC3)C3CCCCC3)nc2c1	99.8
Nc1ccncc1C(F)(F)F	100
Nc1ccccc1CN1CCOCC1	70 to 71
CC(=O)c1csc(-c2cc(C)on2)n1	130 to 132
Fc1ccc(C=Nn2c(C(F)(F)F)n[nH]c2=S)cc1	276

Compound	melting point [°C]
N#Cc1c(NC(=O)CN2CCOCC2)sc2c1CCCC2	178 to 179
Cc1nn(C)c(Cl)c1[N+](=O)[O-]	75 to 77
Nc1ccc(CO)cc1	61
O=C(O)c1ccc(C(=O)O)c([N+](=O)[O-])c1	270 to 272
FC(F)C(F)(F)C(F)(F)C(F)(F)C(F)(F)C(F)(F)C(F)(F)C(F)(F)C(F)(F)C(F)F	42 to 43
Oc1ccc(C(F)(F)F)cn1	145 to 148
CC(=O)C(=O)c1cc(C(=O)C(C)=O)c([N+](=O)[O-])cc1[N+](=O)[O-]	119
CCCCOC(=O)CCCCC(=O)OCCCC	-32.4
C=C1CC(=O)O1	-6.5
CC12CC3CC(Br)(C1)CC(C(=O)O)(C3)C2 (configuration not stated)	118 to 120
CC(N)CC(=O)O (configuration not stated)	193
CCOC(=O)c1[nH]c(C)c(Br)c1C	142
COc1ccc(CC2c3cc(OC)c(OC)cc3CCN2C)cc1OC (configuration not stated)	89
C=CC(C)(O)CCC1C(C)(O)CCC2C(C)(C)CCCC21C (configuration not stated)	97
Cc1nn(C(C)(C)C)c(C)c1C=O	56 to 61
CCc1ccc(CCO)nc1	42
CC(=O)O[C@H]1C[C@H]2[C@@H]3CCC4CCCC[C@]4(C)[C@H]3CC[C@]2(C)C1 (some centres not stated)	108
CC12CCC3C(C1CCC2=O)C1(CC2CC(=O)CCC23C)OCCO1 (configuration not stated)	205 to 208
Cc1nc(C)c(Br)s1	153 to 155
OCCN(CCO)c1ccccc1	57
CC(C)N1C(=O)N(c2ccccc2)CSC1=NC(C)(C)C	105
CCCCCCOC(=O)CCCCC	-55

Compound	melting point [°C]
ClCc1noc(-c2ccsc2)n1	69 to 70
OC12CCCC1c1ccccc12 (configuration not stated)	66
CC12CC3CC(C1)CC(C)(C3)C2	-30
CC=CCCCCC	-80
Cc1cc(Cl)c(Cl)cc1Cl	82.4
O=C(O)Cc1ccc(F)c(F)c1	49
O=S(=O)(Cl)c1ccc(-c2nsc(Cl)n2)s1	71 to 74
O=[N+]([O-])c1ccc(OCC2CO2)cc1 (configuration not stated)	54 to 55
O=C(CO)CO	90
CCO[Si](Cl)(OCC)OCC	-51
CN1C(=O)C(O)N=C(c2ccccc2Cl)c2cc(Cl)ccc21 (configuration not stated)	206
CCc1cccc(Cl)c1	-55
S=c1[nH]ccn1-c1cccc(Cl)c1	161 to 163
Cc1nc(N(C)C)nc(OC(=O)N(C)C)c1C	91.6
N#CCCN1C(=O)COc2ccc(Cl)cc21	131
O=C(O)CC(F)(F)C(=O)O	142
Cc1cccc(C(C)(C)C)c1N=C=O	37
CCOC(=O)c1cc(O)c(O)c(O)c1	151 to 154
Cc1nnc(SCC2=C(C(=O)O)N3C(=O)C(NC(=O)Cn4cnnn4)C3SC2)s1 (configuration not stated)	198
O=C(O)C1(C(=O)O)C2CCCCCCC21 (configuration not stated)	217
COC(=O)c1nc(Cl)c(Cl)nc1N	232

Results, then the compound that gave them:

melting point [°C]	Compound
132 to 134	Nc1ccc(Oc2ccc([N+](=O)[O-])cc2)cc1
238 to 239	Cn1c(SCC(=O)O)nnc1-c1ccc2ncccc2c1
200	N#Cc1cc2ccccc2oc1=N
146	COc1ccc(C(=O)c2ccccc2C(=O)O)cc1
-20	CCc1cccc(C(C)=O)c1
158	CC(C)(C)N(NC(=O)c1ccccc1)C(=O)c1cc(F)c(F)c(F)c1F
88	COC(=O)c1cc(Br)c(C)c(Br)c1
189	C/C(Cc1ccccc1)=N\NC(N)=O
171	C1=CC2=CC=Cc3c(c(c4cccc5cccc3c54)=C1)C2
84 to 88	O=C(C=Cc1ccc(F)cc1)c1ccccc1
216	COC(=O)C1=C(N)Oc2cc(C)n(CCc3ccccc3)c(=O)c2C1c1cccc([N+](=O)[O-])c1 (configuration not stated)
94	CCOC(=O)c1cc2ccccc2oc1=O
134 to 136	Cc1cccc2c1-c1nc3ccccc3nc1-2
147	Cc1ccccc1NC(=S)NN
173	CCOc1ccc(C(=O)OCCN(CC)CC)cc1
48	CCN(CC)c1ccc(C(C)=O)cc1
128	O=C1c2ccccc2CC2c3ccccc3C=CN12 (configuration not stated)
254	N#C/C(=N/Nc1cccc2ccccc12)c1nc2ccccc2s1
267	Cc1ccc(-n2c(C=Cc3ccc([N+](=O)[O-])cc3)nc3cc([N+](=O)[O-])ccc32)cc1
5	Cc1cccc2[nH]ccc12
236	COc1ccc(C=Cc2cc(O)cc(OC3OC(CO)C(O)C(O)C3O)c2)cc1O (configuration not stated)

melting point [°C]	Compound
197	O=C(Oc1ccc(Cl)cc1)c1ccc(C(=O)Oc2ccc(Cl)cc2)cc1
54 to 59	CCOc1ccc(CO)cc1OC
177	O=C1/C(=N/Nc2ccncc2)C(C(F)(F)F)=NN1c1ccccc1
76.2	COC(=O)C1(S(=O)(=O)c2ccc(Cl)cc2)CCC1
255	O=C(C1=NN(c2ccccc2)C2C(=O)N(c3ccc(Br)cc3)C(=O)C12)c1ccc(Cl)cc1 (configuration not stated)
-6	CCc1ccccc1-c1ccccc1
88	Cc1ccc(S(C)(=O)=O)cc1
285 to 288	CN(C)c1ccc(C=C2SC(=S)NC2=O)cc1
119	COc1cc(/C=C/C(=O)c2ccc3ccccc3c2)cc(OC)c1OC
178 to 181	COc1ccc(C(C=O)C=O)cc1
98 to 99	O=[N+]([O-])c1cccnc1Oc1ccc(F)cc1
27	CCCCCCCc1ccc(-c2ccccc2)cc1
-30.6	C=C(C)c1ccc(C(C)C)cc1
45.5	CCCCOc1ccc(OCCCC)cc1
162	CC(=O)n1cc(C=O)c2ccccc21
293	COc1ccc(Nc2nc(N)nnc2-c2ccccc2)cc1
240 to 242	N=C1N=C2CCC(c3ccccc3)=NN2CN1
52	C1=NN(c2ccccc2)CC1
93 to 94	Cc1cc(C(=O)CCl)c(C)n1-c1ccccc1
106 to 108	COc1ccc(C(=O)C=Cc2ccccc2)c(O)c1
54 to 55	O=C(Cl)c1cc2ccccc2o1

melting point [°C]	Compound
55 to 59	CC(=O)CS(=O)(=O)c1ccccc1
99	COc1cc(F)c(C=O)cc1OC
391 to 394	O=C1c2cc3ccccc3cc2C(=O)c2cc3ccccc3cc21
247	Nc1ccc(-c2ccc(-c3ccc(N)cc3)cc2)cc1
180	O=C(c1ccccc1)N1CC(c2ccccc2)C=C1c1ccccc1 (configuration not stated)
120 to 124	C=C(C)n1c(=O)[nH]c2ccccc21
117 to 118	Cc1oc(-c2ccccc2)nc1CO
255 to 256	Cc1nc2ccccc2c2c1C(=O)NC2=O
152	Cn1c(=O)c2c(ncn2CCOC(=O)c2cccnc2)n(C)c1=O
199	CC(=NNC(=O)c1ccncc1)c1ccco1
275	Nc1ccc(Nc2ccc(N)c3c2C(=O)c2ccccc2C3=O)c2c1C(=O)c1ccccc1C2=O
174	CCOC(=O)Nc1ccc2cc3ccc4c(c3nc2c1)COCN4C(=O)OCC
166	Cc1ccc(-c2ccc(C=C3C(=O)OC(C)(C)OC3=O)o2)cc1
157 to 158	O=C(O)/C(=C/c1ccccc1)Cc1ccccc1
109 to 116	CCCCCCCCCCCCCCOc1ccccc1NC(=O)c1cc(Oc2ccc([N+](=O)[O-])cc2CN(C(=O)Cl)C(C)C)c2ccccc2c1O
140	Nc1ccc(-c2ccc(NNc3ccccc3)cc2)cc1
53	CC(=O)c1cc(F)cc(Cl)c1
360	N#Cc1ccc2c(c1)[N+]([O-])=C(c1ccc(C3=[N+]([O-])c4cc(C#N)ccc4C3=O)cc1)C2=O
139	O=C(OCc1ccc([N+](=O)[O-])cc1[N+](=O)[O-])c1ccccc1
83 to 84	Cc1cc2ccccc2nc1Cl
